In paper PMC6476959, “Novel 3,4-Dihydroisocoumarins Inhibit Human P-gp and BCRP in Multidrug Resistant Tumors and Demonstrate Substrate Inhibition of Yeast Pdr5” (Frontiers in Pharmacology, 2019):

Experiments:
A549 cells = experiment: CellTiter-Glo cell viability assay (cytotoxicity), A549; type: cell-based, human; conditions: Homo sapiens, A549; 48 h, mean ± SEM
Experimental: (§1) The human lung adenocarcinoma cell line A549 was cultured in DMEM medium supplemented with 10% fetal bovine serum (FBS), 100 U/mL penicillin and 100 μg/mL streptomycin. P-gp-expressing human colon adenocarcinoma cells HCT-15 were cultured in RPMI 1640 medium supplemented with 10% FBS, 100 U/mL penicillin and 100 μg/mL streptomycin. BCRP-expressing MCF-7/MX human breast adenocarcinoma cells were cultured in DMEM medium supplemented with 10% FBS, 100 U/mL penicillin and 100 μg/mL streptomycin. MRP1-expressing H69AR human small cell lung cancer cells were cultured in RPMI 1640 medium (ATCC modification) supplemented with 20% FBS, 100 U/mL penicillin and 100 μg/mL streptomycin. All cancer cell lines employed have been systematically characterized regarding their respective ABC transporter expression profile ([Sachs et al., 2019]).
(§2) Cytotoxic activity of test compounds was analyzed after 48 h using the CellTiter-Glo Luminescent Cell Viability Assay published previously ([Weber et al., 2017]) in 384-well plates with the following cell densities: A549, MCF-7/MX: 2 × 10^3 cells/well; HCT-15: 3 × 10^3 cells/well; H69AR: 5 × 10^3 cells/well. Pipetting was conducted with the CyBi-Well 96-channel simultaneous pipettor (Analytik Jena AG, Jena, Germany). For generation of dose-response curves and calculation of IC50 values, the four-parameter logistic model was applied.

HCT-15 cells = experiment: CellTiter-Glo cell viability assay (cytotoxicity), HCT-15; type: cell-based; conditions: Homo sapiens, 48 h, P-gp expressing, mean ± SEM
Experimental: as §1, §2

MCF-7/MX cells = experiment: CellTiter-Glo cell viability assay (cytotoxicity), MCF-7/MX; type: cell-based; conditions: Homo sapiens, MCF7/MX; 48 h, BCRP-expressing, mean ± SEM
Experimental: as §1, §2

H69AR cells = experiment: CellTiter-Glo cell viability assay (cytotoxicity), H69AR; type: cell-based; conditions: Homo sapiens, 48 h, MRP1-expressing, mean ± SEM
Experimental: as §1, §2

P-gp = biological target: T1, P-gp (Homo sapiens, UniProt P08183); experiment: P-gp transport assay (calcein-AM) in HCT-15 cells; type: cell-based
T1 construct: endogenous in cells; host or cells: HCT-15 human colon adenocarcinoma cells
T1 sequence (P08183 whole entry): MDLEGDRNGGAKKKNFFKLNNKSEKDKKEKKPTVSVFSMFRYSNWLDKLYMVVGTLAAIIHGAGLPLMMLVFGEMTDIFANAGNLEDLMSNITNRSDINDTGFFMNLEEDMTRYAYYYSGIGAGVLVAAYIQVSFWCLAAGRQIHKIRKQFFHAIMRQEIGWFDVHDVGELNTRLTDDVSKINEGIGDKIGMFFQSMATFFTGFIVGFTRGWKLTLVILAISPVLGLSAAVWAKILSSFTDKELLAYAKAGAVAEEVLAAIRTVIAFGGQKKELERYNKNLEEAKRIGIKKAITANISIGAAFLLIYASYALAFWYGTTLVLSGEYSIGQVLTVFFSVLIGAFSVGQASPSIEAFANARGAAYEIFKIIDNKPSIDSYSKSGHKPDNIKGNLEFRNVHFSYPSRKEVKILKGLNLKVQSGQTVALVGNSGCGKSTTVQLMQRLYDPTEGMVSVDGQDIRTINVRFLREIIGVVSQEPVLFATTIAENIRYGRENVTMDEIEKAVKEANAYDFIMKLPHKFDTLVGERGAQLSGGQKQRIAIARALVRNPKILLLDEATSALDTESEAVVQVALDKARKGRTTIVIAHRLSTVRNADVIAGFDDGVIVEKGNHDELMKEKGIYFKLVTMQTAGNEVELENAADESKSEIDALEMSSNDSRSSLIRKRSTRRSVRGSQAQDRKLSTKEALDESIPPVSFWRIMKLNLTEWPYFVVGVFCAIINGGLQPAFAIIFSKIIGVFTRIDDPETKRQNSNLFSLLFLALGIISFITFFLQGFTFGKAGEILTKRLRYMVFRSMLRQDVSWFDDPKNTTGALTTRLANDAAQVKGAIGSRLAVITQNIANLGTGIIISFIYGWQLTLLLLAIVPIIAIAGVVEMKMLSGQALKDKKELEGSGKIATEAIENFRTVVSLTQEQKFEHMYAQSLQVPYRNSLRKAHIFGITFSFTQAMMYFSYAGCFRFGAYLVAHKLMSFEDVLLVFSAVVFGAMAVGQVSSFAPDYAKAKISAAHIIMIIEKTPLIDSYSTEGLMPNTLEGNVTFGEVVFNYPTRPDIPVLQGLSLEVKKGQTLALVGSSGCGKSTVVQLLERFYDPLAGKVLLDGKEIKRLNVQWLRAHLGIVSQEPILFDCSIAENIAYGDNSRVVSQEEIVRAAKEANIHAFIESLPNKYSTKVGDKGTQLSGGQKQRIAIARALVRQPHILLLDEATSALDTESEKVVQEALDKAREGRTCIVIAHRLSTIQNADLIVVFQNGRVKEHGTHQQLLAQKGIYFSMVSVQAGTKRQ
Experimental: The transport of calcein-AM by P-gp and its modulation by test compounds was analyzed in the P-gp-expressing HCT-15 cell line. 5 × 10^4 cells were seeded in black 96-well plates and incubated at 37°C and 5% CO2 for 24 h. The culture medium was removed and replaced by Hank’s balanced salt solution supplemented with 10 mM HEPES. Test compounds, 2.5 μM PSC833 (positive control) or 0.5% DMSO (negative control) were added in triplicates and incubated for 30 min at 37°C and 5% CO2. The substrate calcein-AM was added (final concentration 0.5 μM) and the fluorescence (excitation 485 nm, emission 520 nm) was measured over 3 h with the Infinite m1000 pro microplate reader (Tecan Group AG, Männedorf, Switzerland) at 37°C. The transport activity of P-gp was analyzed by determining the slope of the linear part of the fluorescence-time curve (0–30 min) using linear regression. Normalization of the data to PSC833 (100% inhibition) and DMSO (0% inhibition) was performed.

BCRP = biological target: T2, BCRP (Homo sapiens, UniProt Q9UNQ0); experiment: BCRP transport assay (Hoechst 33342) in MCF-7/MX cells; type: cell-based
T2 construct: endogenous in cells; host or cells: MCF-7/MX human breast adenocarcinoma cells (mitoxantrone-selected)
T2 sequence (Q9UNQ0 1-655): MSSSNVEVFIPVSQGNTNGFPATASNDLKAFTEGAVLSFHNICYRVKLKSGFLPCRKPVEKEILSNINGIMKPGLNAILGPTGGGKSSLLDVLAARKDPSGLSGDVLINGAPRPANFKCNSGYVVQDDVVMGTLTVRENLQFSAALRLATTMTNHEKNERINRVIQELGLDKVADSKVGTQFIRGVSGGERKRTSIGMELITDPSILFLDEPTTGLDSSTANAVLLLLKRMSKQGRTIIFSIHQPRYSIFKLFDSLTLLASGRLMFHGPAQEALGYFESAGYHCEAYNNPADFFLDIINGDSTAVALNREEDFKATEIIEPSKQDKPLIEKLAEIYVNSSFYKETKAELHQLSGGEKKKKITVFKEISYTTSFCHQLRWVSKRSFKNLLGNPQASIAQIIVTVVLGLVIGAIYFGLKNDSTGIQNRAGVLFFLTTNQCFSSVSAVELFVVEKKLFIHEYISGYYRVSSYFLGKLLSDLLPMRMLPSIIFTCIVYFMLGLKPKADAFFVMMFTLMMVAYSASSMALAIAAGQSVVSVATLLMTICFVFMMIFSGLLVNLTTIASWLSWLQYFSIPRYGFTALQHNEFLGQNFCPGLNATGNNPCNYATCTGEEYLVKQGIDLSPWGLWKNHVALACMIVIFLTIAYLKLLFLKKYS
Experimental: Breast cancer resistance protein transport activity was determined in the BCRP-expressing MCF-7/MX cell line. Hoechst 33342 was applied as transporter substrate and 1 μM Ko143 as positive control or 0.5% DMSO as negative control and the assay was performed according to the P-gp assay. Fluorescence was measured at an excitation wavelength of 355 nm and emission wavelength of 460 nm. The transport activity of BCRP was analyzed by determining the plateau of the fluorescence-time curve by using non-linear regression (one-phase exponential fit). Normalization of the data to Ko143 (100% inhibition) and DMSO (0% inhibition) was performed.

Pdr5 = biological target: T3, Pdr5 (Saccharomyces cerevisiae, UniProt P33302); experiment: Pdr5 ATPase assay (oligomycin-sensitive) in plasma membrane preparations; type: biochemical; conditions: highest concentrations (10 mM), in comparison to Pdr5 WT in the absence of any compound
T3 construct: effect on (A) the transport activity of Pdr5 WT and (B) their effect on the ATPase activity; made in house; host or cells: S. cerevisiae YRE1001 (pdr1-3 background), isolated plasma membranes
T3 sequence (P33302 whole entry): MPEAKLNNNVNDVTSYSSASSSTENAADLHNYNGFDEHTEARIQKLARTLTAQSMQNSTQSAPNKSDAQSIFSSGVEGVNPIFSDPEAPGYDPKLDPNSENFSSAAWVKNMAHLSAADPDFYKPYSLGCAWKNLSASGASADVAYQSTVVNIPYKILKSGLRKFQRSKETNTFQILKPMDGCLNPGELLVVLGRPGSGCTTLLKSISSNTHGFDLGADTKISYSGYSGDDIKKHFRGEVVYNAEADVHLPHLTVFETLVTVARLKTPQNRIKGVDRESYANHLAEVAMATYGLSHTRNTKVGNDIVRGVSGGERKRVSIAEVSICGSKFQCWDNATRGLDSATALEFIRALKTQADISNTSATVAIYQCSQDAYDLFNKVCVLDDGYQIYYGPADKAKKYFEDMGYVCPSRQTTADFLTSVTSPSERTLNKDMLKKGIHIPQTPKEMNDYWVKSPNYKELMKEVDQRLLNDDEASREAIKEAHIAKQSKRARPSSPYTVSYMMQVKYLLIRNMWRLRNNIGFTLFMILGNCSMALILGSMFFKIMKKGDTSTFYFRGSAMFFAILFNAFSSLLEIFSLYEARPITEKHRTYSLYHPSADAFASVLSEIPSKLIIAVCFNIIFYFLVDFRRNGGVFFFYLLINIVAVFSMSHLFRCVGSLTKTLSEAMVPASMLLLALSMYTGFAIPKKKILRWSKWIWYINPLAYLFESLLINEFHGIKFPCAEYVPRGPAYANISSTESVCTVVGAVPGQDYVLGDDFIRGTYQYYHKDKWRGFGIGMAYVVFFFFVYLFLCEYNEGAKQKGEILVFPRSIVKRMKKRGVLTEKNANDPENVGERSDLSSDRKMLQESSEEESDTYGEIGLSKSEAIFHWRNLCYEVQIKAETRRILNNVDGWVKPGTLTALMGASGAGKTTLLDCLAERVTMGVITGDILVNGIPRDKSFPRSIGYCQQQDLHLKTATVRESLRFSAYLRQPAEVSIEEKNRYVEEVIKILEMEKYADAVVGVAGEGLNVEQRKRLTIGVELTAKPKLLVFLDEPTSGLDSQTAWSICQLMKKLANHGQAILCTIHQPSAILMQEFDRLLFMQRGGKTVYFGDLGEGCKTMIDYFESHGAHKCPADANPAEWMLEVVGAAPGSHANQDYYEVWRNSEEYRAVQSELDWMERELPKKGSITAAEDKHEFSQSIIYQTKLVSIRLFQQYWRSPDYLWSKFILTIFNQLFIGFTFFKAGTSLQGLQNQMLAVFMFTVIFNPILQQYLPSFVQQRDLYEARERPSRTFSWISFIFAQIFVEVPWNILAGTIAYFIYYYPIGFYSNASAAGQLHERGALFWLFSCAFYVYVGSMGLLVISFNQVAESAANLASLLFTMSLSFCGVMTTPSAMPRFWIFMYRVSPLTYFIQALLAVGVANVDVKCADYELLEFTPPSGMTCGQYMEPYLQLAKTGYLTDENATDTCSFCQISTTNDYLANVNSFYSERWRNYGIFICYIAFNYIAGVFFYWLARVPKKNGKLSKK
Experimental: Saccharomyces cerevisiae cells expressing Pdr5 WT or the E1036Q (EQ) mutant were cultured to an OD600 of 1.5 in YPD-media at 25°C. The nitrogen source was replenished by addition of a 10th volume of 5x YP (50 g/l yeast extract, 100 g/l peptone). The cells were grown to an OD of 3.5 and harvested (5000 ×g at 4°C for 15 min). The isolation of Pdr5 containing PMs was performed as described ([Kolaczkowski et al., 1996]; [Ernst et al., 2008]).
Oligomycin (OM)-sensitive ATPase activity was measured from 0.8 μg PM containing Pdr5 incubated with 2 mM ATP, 5 mM MgCl2 in 270 mM TRIS-glycine buffer (pH 9.5) and 2.5 μl of the test compounds or DMSO as a control in a total volume of 100 μl. To reduce the background activities, 0.2 mM ammonium molybdate, 10 mM NaN3 and 50 mM KNO3, respectively, were added ([Dufour et al., 1988]; [Goffeau and Dufour, 1988]). In a second assay, OM (20 μg/ml) was added to an otherwise identical setup. After incubation at 30°C for 20 min, the reaction was stopped by adding 25 μl of the reaction to 175 μl 40 mM H2SO4. The amount of released inorganic phosphate was determined by a colometric assay in 96-well plates ([Goffeau and Dufour, 1988]; [Decottignies et al., 1994]; [Wada et al., 2002]). The difference of both assays ( ± OM) corresponds to the specific ATPase activity of Pdr5 ([Ernst et al., 2008]).

[1] = Solubility observation in transporter assays; type: physicochemical; conditions: could not be employed at 50 μM

O=c1oc2c(O)c(O)cc3c(=O)oc4c(O)c(O)cc1c4c23 [Ellagic acid, ellagic acid]
IC50 (A549 cells): > 50 µM | IC50 (HCT-15 cells): > 50 µM | IC50 (MCF-7/MX cells): > 50 µM | IC50 (H69AR cells): > 50 µM | Inhibition of P-gp (in words) (P-gp): did not display any inhibitory activity | Inhibition of BCRP (in words) (BCRP): did not display any inhibitory activity | ATPase activity of Pdr5 WT inhibited to (initial screen) (Pdr5): 56% | ATPase activity of Pdr5 WT inhibited to (initial screen) (Pdr5; listed as ellagic acid): 50% | Solubility (in words) [1]: low solubility
